From patent US20170216252A1, “ANTI-BACTERIAL PYRUVATE KINASE MODULATOR COMPOUNDS, COMPOSITIONS, USES AND METHODS” (SIMON FRASER UNIVERSITY, priority 2014, published 2017)
≈ marks a conversion by molar mass, not a printed value. Read-outs that look alike come from different tables or passages of the source.

Experiments:
VRE#2 (2010A) = test: Broth microdilution MIC; assay type: cell-based, vancomycin-resistant Enterococcus; settings: Enterococcus; VRE#2 (2010A); read-out: MIC (μg/mL) F
Procedure: (§1) The antimicrobial activities of PK inhibitor candidates were determined using the 96-well microtiter standard 2-fold serial broth microdilution method as described by CLSI (formerly NCCLS) with the various gram-positive and gram-negative bacteria species mentioned above. Bacteria from a single colony were grown, overnight in either BHI Broth (VRE), mueller hinton broth (S. aureus 29213; MRSA USA400) or L-broth (E. coli, P. aeruginosa, S. typhimuriu, K. Pneumonia and A. baumannii). […] Culture plates were incubated for 18-24 h at 37° C., and optical density at 600 nm (OD600) was measured using a Benchmark Plus™ microplate spectrophotometer (Bio-Rad™). The absorbance control values for the series containing CAMHB and inhibitor were subtracted as background from the corresponding infected wells. The MIC was defined as the lowest concentration of test compound leading to complete inhibition of cell growth in relationship to compound-free control wells as determined by optical density. […] All assays were run in triplicate (Tables 1-6) or duplicate. Experiments were replicated at least twice to verify reproducibility using the above conditions.
(§2) The antimicrobial activity of selected compounds against the gram negative bacteria Klebsiella pneumoniae, Acinetobacter baumannii, E. coli, Pseudomonas aeruginosa and Salmonella typhimurium, as well as additional gram positive bacteria, including drug-resistant strains, was tested according to the procedures provided under “General Methodologies” above.

E. coli (DAS 1-IMP) = test: microbe, parasite or virus in culture; assay type: cell-based, Escherichia coli; settings: for MIC: Escherichia coli, read-out: MIC (μg/mL) C, E. coli (DAS 1-IMP)
Procedure: as §1, §2

P. aeruginosa (PA01) = test: Broth microdilution MIC; assay type: cell-based; settings: Pseudomonas aeruginosa
Procedure: as §1, §2

S. typhimurium (SL 1344) = test: Broth microdilution MIC; assay type: cell-based; settings: Salmonella enterica
Procedure: as §1, §2

MRSA MW2 (USA400) = test: Broth microdilution MIC; assay type: cell-based; settings: Staphylococcus aureus; MRSA MW2 (USA400); read-out: MIC (μg/mL) G
Procedure: as §1, §2

[1] = tested on: A. baumannii (ATCC 19606); test: Broth microdilution MIC; assay type: cell-based; settings: Acinetobacter baumannii, ATCC19606; A. baumannii (ATCC 19606); read-out: MIC (μg/mL) B
Procedure: as §1, §2

K. pneumoniae (C238) = test: Broth microdilution MIC; assay type: cell-based; settings: Klebsiella pneumoniae; K. pneumoniae (C238); read-out: MIC (μg/mL) A
Procedure: as §1, §2

MRSA PK = target: T1, MRSA PK (Staphylococcus aureus, UniProt Q6GG09); test: MRSA PK activity, continuous LDH-coupled assay; assay type: biochemical, S. aureus (MRSA strain Sanger 252)
T1 construct: His tag (pET-28a(+) vector) (N); made in house; host or cells: E. coli BL-21 (DE3)
Procedure, shortened: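 Activity was tracked as the 340 nm absorbance fall from NADH oxidation via coupled LDH, at 30 °C for ≤5 min. Reactions began on adding 15 nM recombinant His-tagged S. aureus PK, with inhibitor DMSO kept ≤1%. Four-parameter dose–response fitting gave IC50.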

S. aureus ATCC 29213 = test: In vitro susceptibility, broth microdilution MIC; assay type: cell-based, Staphylococcus aureus
Procedure, shortened: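 The MIC against S. aureus 29213 was determined by CLSI 2-fold serial broth microdilution in Mueller Hinton broth. Plates were incubated for 18–24 h at 37 °C and read at OD600 with background subtracted. The MIC was the lowest concentration giving complete growth inhibition versus compound-free wells.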

S. pyogenes (ATCC700294) = test: Broth microdilution MIC; assay type: cell-based; settings: Streptococcus pyogenes
Procedure: as §1, §2

[2] = Staphylococcus aureus, ATCC29213, S. aureus (ATCC29213), Table 9, read-out: MIC (μg/mL) H
[3] = Staphylococcus aureus, ATCC29213, Table 8, tested at least in duplicate, differing values all given, read-out: MIC
[4] = Table 8, tested at least in duplicate, differing values all given

T1 sequence (Q6GG09 whole entry): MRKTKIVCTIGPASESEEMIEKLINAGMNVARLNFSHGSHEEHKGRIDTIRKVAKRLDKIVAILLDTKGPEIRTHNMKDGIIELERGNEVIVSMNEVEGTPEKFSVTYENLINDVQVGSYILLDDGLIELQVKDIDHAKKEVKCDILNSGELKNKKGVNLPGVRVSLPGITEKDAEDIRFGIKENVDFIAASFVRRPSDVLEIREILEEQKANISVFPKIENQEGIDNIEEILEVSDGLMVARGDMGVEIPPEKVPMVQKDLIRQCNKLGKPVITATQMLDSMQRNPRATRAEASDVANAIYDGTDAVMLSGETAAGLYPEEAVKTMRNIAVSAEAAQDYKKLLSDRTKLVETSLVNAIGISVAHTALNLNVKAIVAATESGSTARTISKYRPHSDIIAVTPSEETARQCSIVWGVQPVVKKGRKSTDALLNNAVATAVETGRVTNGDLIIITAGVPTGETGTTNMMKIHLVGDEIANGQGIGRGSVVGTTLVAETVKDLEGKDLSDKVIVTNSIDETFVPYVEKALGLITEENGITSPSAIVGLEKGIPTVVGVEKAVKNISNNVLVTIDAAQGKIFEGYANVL

Row | Structure (SMILES) | MIC (VRE#2 (2010A)) [µg/mL] | MIC (E. coli (DAS 1-IMP)) [µg/mL] | MIC (P. aeruginosa (PA01)) [µg/mL] | MIC (S. typhimurium (SL 1344)) [µg/mL] | MIC (MRSA MW2 (USA400)) [µg/mL] | MIC [1] [µg/mL] | MIC (K. pneumoniae (C238)) [µg/mL] | IC50 (MRSA PK) [nM] | MIC (S. aureus ATCC 29213; [2]) [µg/mL] | MIC (S. aureus ATCC 29213; [3]) [µg/mL] | MIC (S. aureus ATCC 29213; [4]) [µg/mL] | MIC (μg/mL) C (E. coli (DAS 1-IMP); E. coli (DAS 1-IMP)) [µg/mL] | MIC (S. pyogenes (ATCC700294)) [µg/mL]
1 | O=C(O)c1c(/C=C/c2ccc(Cl)cc2)[nH]c2cc(Br)ccc12 [Compound 123, (E)-6-Bromo-2-(4-chlorostyryl)-1H-indole-3-carboxylic acid] | 32 (≈ 85 µM) | 64 (≈ 170 µM) | > 64 | > 64 | 32 (≈ 85 µM) | 64 (≈ 170 µM) | 32 (≈ 85 µM) | 100 to 1000 | 16 (≈ 42.5 µM) | – | – | – | –
2 | COC(=O)c1c(/C=C/c2ccc(Cl)cc2)[nH]c2cc(Br)ccc12 [Compound 124, (E)-methyl 6-bromo-2-(4-chlorostyryl)-1H-indole-3-carboxylate] | 8 (≈ 20.5 µM) | > 64 | > 64 | > 64 | 2 (≈ 5.12 µM) | > 64 | 2 (≈ 5.12 µM) | < 50 | 2 (≈ 5.12 µM) | 4 (≈ 10.2 µM) | 2 (≈ 5.12 µM) | – | –
3 | O=C(c1c(CCc2ccc(Cl)cc2)[nH]c2cc(Br)ccc12)C(F)(F)F [Compound 167, 1-(6-Bromo-2-(4-chlorophenethyl)-1H-indol-3-yl)-2,2,2-trifluoroethanone] | 1 (≈ 2.32 µM) | 4 (≈ 9.29 µM) | > 64 | > 64 | – | > 64 | 1 (≈ 2.32 µM) | 100 to 1000 | 1.5 (≈ 3.48 µM) | 2 (≈ 4.64 µM) | 1 (≈ 2.32 µM) | 8 (≈ 18.6 µM) | 2 (≈ 4.64 µM)
4 | COc1cccc(OC)c1C(=O)N[C@@H]1C(=O)N2[C@@H]1SC(C)(C)[C@@H]2C(=O)O [Methicillin, methicillin, reference compound] | 64 (≈ 168 µM) | – | – | – | 32 (≈ 84.1 µM) | > 64 | 4 (≈ 10.5 µM) | – | 2 (≈ 5.26 µM) | – | – | – | 1 (≈ 2.63 µM)
